Source: patent US20250066769A1, “METHODS OF SCREENING AND TREATING FRAGILE X SYNDROME” (YISSUM RESEARCH DEVELOPMENT COMPANY OF THE HEBREW …, priority 2021, published 2025)

Assays:
[1] = tested on: methylated pFMR1-(240) CGG-EGFP construct in haploid hESCs; assay: methylated pFMR1-(240) CGG-EGFP reporter transfection in mutant haploid hESCs, flow cytometry; assay type: cell-based, human; conditions: Cas9 + two sgRNAs per gene, compared to Cas9 without sgRNA
Protocol: In vitro DNA methylation: pFMR1-n (CGG)-eGFP construct was methylated using an M.SssI CpG methyltransferase (NEB) according to manufacturer's recommendations. SAM concentration was adjusted to 640 μM. DNA was extracted using ethanol precipitation.
Library transfection: 10 μM ROCK inhibitor (Y27632) was added 1 hour prior to trypsinization and transfection. Library cells were harvested using TrypLE™ Select Enzyme solution (Thermo Fisher Scientific, Cat #12563029) in a single cell state. Following the first centrifugation, cells were re-suspended twice with DMEM/F12 and centrifuged again before incubation with the plasmid DNA. Transfection of the methylated pFMR1-CGG (240)-EGFP construct was performed using the Xtreme Gene9 reagent (Roche), using standard conditions. 48 hours following transfection, cells were washed with PBS, harvested using TrypLE™ Select, resuspended in PBS supplemented with 15% fetal bovine serum (FBS) and filtered through a 70-μm cell strainer (Corning) and sorted using BD FACDAria III. Transfection efficiency was assessed using the simultaneous transfection of control haploid hESCs with an unmethylated pFMR1-CGG (240)-EGFP construct.
Generation of gene knockouts: Ten candidate genes were targeted using a lentiviral construct containing Cas9 and a specific sgRNA (Table 2). Two sgRNAs were used to target each candidate gene. Each sgRNA sequence was inserted into a separate lentiCRISPR v2 vector (Addgene cat. No. 52961). As a control, a lentiCRISPR v2 vector without any sgRNA (empty vector) was used. Lentiviruses were produced using 293T cells cultured in 10 cm plates using transfection with the sgRNA-containing-lentiCRISPR v2 construct, psPAX2 (Addgene cat. No. 12260) and pCMV-VSV-G (Addgene cat. No. 8454) at a ratio of 5.32:4:2.64 ratio, in the presence of polyethylenimine “Max” (PEI-Max) (Polysciences) at a 1:2 ratio of DNA to PEI-Max. After 24 hours, the medium was exchanged with standard hESC medium, which was harvested 60-65 hours following transfection, centrifuged, and filtered through 0.45 μm cellulose acetate filters (Millipore). […]

[2] = tested on: FMR1 expression in FXS-iPSCs; assay: RT-PCR analysis of FMR1 expression in FXS-iPSCs; assay type: cell-based, human; conditions: for FMR1 transcription levels (RT-PCR): lentiviral Cas9 and two sgRNAs per candidate gene, vs basal level
Text: Cell lines: Throughout the study the following cell lines were used: The FXS-iPSCs cell line A52. Haploid hpESCs-hPES10. CSES7 and CSES9 hESCs and their derivatives were used as a reference for wild type expression. 293T cells were used for the construction of lentiviral constructs.
RNA isolation and reverse transcription: Total RNA was isolated using NucleoSpin RNA Plus kit (Macherey-Nagel) and reverse transcribed using the qScript® cDNA Synthesis Kit. Quantitative real time PCR (qRT-PCR) was performed using SYBR Green qPCR Supermix (Applied Biosystems) and analyzed with the 7300 real-time PCR system (Applied biosystems). FMR1 expression was assessed using specific primers, which amplified a 147 bp product spanning exons 5-6 of FMR1. GAPDH was used for normalization.
DNMT1 disruption assay: As human pluripotent stem cells require DNA methylation for their viability, heterogenous DNMT1-mutant populations of FXS-iPSCs were generated by infecting the cells with a lentiCRISPR v2 lentiviral vector containing an sgRNA that targets the open reading frame of DNMT1. The sgRNA sequence was cloned into the lentiCRISPR v2 plasmid and transformed into Stb13 chemically competent bacteria. Following plasmid isolation, 293T cells were transfected with sgRNA-containing lentiCRISPR V2, psPAX2, and pCMV-VSV-G plasmids at a ratio of 13.3:10:6.6, respectively, in the presence of polyethylenimine ‘Max’ (Polysciences). Lentiviral particle-containing supernatant was collected ˜65 hours after transfection and filtered using […] filters. For transduction, FXS-iPSCs were trypsinized, centrifuged, and suspended in embryonic stem cell media supplemented with 10 μM ROCK inhibitor (Y27632) and 8 μg/ml polybrene (Sigma). The viruses were added to the cell suspension, and the cells were plated on MEFs overnight. After ˜36 hours, the cells' medium was replaced with puromycin-containing medium ([…], Sigma). After 2-14 days selection with puromycin, cells were harvested for RNA extraction. To confirm DNMT1 mutagenesis in the transduced cells, qRT-PCR primers that were designed to have their 3′ ends around the Cas9 cut-site of DNMT1 were used to analyze the abundance of wild-type copies to DNMT1 transcripts.
Generation of gene knockouts: Ten candidate genes were targeted using a lentiviral construct containing Cas9 and a specific sgRNA (Table 2). Two sgRNAs were used to target each candidate gene. Each sgRNA sequence was inserted into a separate lentiCRISPR v2 vector (Addgene cat. No. 52961). As a control, a lentiCRISPR v2 vector without any sgRNA (empty vector) was used. Lentiviruses were produced using 293T cells cultured in 10 cm plates using transfection with the sgRNA-containing-lentiCRISPR v2 construct, psPAX2 (Addgene cat. No. 12260) and pCMV-VSV-G (Addgene cat. No. 8454) at a ratio of 5.32:4:2.64 ratio, in the presence of polyethylenimine “Max” (PEI-Max) (Polysciences) at a 1:2 ratio of DNA to PEI-Max. After 24 hours, the medium was exchanged with standard hESC medium, which was harvested 60-65 hours following transfection, centrifuged, and filtered through 0.45 μm cellulose acetate filters (Millipore). The filtered supernatant was frozen in aliquots at −70° C. For transduction, FXS-iPSCs or haploid human ESCs were trypsinized with TrypLE™ Select, centrifuged, and resuspended in hESC medium supplemented with 8 μg ml-1 polybrene (Sigma) and 10 μM ROCK inhibitor (Y27632). Thawed or fresh viruses were added to the cell suspension, followed by plating the cells on feeder layer MEFs. […]

Substance | methylated construct expression (relative GFP fluorescence) [1] | FMR1 transcription levels (RT-PCR) [2] | FMR1 expression (RT-PCR) ([2]; lentiviral sgRNA + Cas9, collected 7-14 days after start of selection, vs control FXS-iPSCs) | FMR1 expression (RT-PCR) ([2]; 5 μM, 4 days)
ZNF217: lentiviral Cas9 constructs with two sgRNAs targeting ZNF217 (guide 1 GTGGTGAACGGATCGAGCTG; guide 2 TCTGGATGAAAATGGAGCCG; expressed or natural sequence; listed as Homo sapiens) | highest levels of methylated construct expression | some increase above basal FMR1 transcription levels |  | 
SMARCD1: lentiviral Cas9 constructs with two sgRNAs targeting SMARCD1 (guide 1 GGAGCCGGGCCCATTCGCAC; guide 2 GCCACTACCCAGGAGACCGA; expressed or natural sequence; listed as Homo sapiens) | highest levels of methylated construct expression | some increase above basal FMR1 transcription levels |  | 
sgRNA targeting DNMT1: lentiCRISPR v2 vector with Cas9 and sgRNA GAGGCCAGAAGGAGGAACCG targeting DNMT1 (listed as Homo sapiens) |  |  | reactivation of FMR1 expression | 
C6orf57: lentiviral Cas9 constructs with two sgRNAs targeting C6orf57 (guide 1 GAGACCCAGCTAAGCAACCA; guide 2 TCCCAATCTCCATATCGGGT; expressed or natural sequence; listed as Homo sapiens) | highest levels of methylated construct expression | some increase above basal FMR1 transcription levels |  | 
5′-aza-2′-deoxycytidine [5-azadC, reference compound] |  |  |  | reactivation of FMR1 expression
